Earlier results, collected in patent EP4725956A1, “MODIFIED POLYPEPTIDE AND USE THEREOF IN FIELD OF ANALGESIA” (Nanjing Anji Biotechnology Co., Ltd., priority 2023, dated 2024).

Target: Cav2.2 channel (Homo sapiens, UniProt Q00975)
Details: cited from earlier work

Chain of Cav2.2 channel (Q00975 whole entry, looked up): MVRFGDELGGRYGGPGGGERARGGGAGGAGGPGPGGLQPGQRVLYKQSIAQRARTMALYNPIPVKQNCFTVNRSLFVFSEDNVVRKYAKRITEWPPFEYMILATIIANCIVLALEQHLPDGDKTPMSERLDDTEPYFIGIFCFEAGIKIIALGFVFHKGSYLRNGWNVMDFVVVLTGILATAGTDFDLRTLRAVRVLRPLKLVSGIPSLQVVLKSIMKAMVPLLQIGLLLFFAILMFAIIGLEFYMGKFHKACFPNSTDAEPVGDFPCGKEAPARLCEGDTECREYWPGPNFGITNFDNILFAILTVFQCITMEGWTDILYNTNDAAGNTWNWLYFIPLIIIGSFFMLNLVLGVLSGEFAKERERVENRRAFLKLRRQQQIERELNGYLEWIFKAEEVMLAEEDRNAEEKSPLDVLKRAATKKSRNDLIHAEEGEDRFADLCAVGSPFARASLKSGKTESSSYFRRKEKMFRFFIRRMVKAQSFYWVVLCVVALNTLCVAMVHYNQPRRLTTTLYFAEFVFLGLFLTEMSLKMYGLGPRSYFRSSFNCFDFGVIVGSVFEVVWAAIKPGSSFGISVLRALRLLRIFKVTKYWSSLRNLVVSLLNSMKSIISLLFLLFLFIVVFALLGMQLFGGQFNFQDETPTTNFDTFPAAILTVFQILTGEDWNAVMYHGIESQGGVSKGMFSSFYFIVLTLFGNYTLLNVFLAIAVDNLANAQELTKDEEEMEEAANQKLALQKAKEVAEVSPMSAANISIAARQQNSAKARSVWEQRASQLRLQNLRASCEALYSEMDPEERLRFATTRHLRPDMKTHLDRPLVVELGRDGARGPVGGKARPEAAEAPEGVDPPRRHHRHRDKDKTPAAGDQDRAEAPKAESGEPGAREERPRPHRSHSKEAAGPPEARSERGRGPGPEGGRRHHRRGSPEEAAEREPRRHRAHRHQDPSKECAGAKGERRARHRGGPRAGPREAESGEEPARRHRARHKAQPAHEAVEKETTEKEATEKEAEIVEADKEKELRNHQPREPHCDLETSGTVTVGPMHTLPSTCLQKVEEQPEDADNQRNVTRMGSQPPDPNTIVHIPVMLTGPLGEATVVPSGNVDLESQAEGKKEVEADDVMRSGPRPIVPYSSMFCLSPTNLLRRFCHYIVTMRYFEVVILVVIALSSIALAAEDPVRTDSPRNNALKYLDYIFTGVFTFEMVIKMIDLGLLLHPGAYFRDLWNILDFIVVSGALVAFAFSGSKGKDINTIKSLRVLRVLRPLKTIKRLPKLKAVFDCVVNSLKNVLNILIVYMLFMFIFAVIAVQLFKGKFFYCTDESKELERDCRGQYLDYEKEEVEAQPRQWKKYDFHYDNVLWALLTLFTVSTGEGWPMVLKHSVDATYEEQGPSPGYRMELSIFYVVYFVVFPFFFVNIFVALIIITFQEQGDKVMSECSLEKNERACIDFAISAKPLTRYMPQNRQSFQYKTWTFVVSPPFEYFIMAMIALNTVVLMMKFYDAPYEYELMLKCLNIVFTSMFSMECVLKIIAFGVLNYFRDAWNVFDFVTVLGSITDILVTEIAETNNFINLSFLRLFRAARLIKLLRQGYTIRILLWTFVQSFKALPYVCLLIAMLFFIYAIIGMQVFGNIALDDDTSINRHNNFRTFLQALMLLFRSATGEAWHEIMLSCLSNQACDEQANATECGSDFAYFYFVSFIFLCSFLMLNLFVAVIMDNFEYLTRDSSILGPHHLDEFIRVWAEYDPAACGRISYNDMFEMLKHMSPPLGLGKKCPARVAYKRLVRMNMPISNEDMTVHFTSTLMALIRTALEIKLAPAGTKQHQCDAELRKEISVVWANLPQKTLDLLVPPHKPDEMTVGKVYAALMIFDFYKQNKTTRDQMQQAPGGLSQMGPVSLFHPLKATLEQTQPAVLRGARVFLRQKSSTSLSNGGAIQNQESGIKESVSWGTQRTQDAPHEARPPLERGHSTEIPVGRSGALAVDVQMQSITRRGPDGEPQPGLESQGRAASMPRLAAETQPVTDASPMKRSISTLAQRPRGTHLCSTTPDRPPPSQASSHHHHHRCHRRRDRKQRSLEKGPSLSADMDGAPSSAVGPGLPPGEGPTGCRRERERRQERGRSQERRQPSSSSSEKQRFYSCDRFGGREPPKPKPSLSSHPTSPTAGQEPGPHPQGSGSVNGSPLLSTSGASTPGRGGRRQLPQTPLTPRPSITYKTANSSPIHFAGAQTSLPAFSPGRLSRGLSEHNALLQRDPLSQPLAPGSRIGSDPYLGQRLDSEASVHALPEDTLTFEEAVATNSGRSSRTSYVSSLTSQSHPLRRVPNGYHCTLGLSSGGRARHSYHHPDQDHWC

In the case of ziconotide, the “analgesic potency relative to opioids” value is listed as “approximately 1000 times”.
